Source: PubChem BioAssay (NCI)
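Following 48 hours of exposure in 96-well plates, responses at five concentrations were used to interpolate endpoints linearly. At the GI50, growth is halved. At the TGI there is no net growth.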

How the values were obtained:
Test in all cases: inhibition of tumour cell growth, NCI panel, 48 h
[1] = system: EKVX NSCLC
[2] = system: KM12 colon
[3] = system: M14 melanoma
[4] = system: NCI-H460 lung
[5] = system: NCI-H522 lung
[6] = system: OVCAR-8 ovarian
[7] = system: SF-295 CNS
[8] = system: SK-MEL-5 melanoma
[9] = system: SF-539 CNS
[10] = system: MCF7 breast

Compound: O=C1CCSC2=C1SCc1sccc12
- TGI [1]: > 100 µM
- TGI [2]: > 100 µM
- TGI [3]: > 100 µM
- TGI [4]: > 100 µM
- TGI [5]: > 100 µM
- TGI [6]: > 100 µM
- TGI [7]: > 100 µM
- TGI [8]: > 100 µM

Compound: Nc1cc(=O)n(-c2ccccc2)c(=S)n1-c1ccccc1
- TGI [1]: > 100 µM
- TGI [2]: > 100 µM
- TGI [3]: > 100 µM
- TGI [4]: > 100 µM
- TGI [5]: > 100 µM
- TGI [6]: > 100 µM
- TGI [7]: > 100 µM
- TGI [9]: > 100 µM
- TGI [8]: > 100 µM

Compound: COc1ccccc1NC(=O)c1nc2ccc([N+](=O)[O-])cc2nc1C
- TGI [1]: > 100 µM
- TGI [2]: > 100 µM
- TGI [3]: > 100 µM
- TGI [4]: > 100 µM
- TGI [5]: > 100 µM
- TGI [6]: > 100 µM
- TGI [9]: > 100 µM
- TGI [8]: > 100 µM

Compound: N/N=c1\c2ccccc2c2cc3c(cc12)/c(=N/N)c1ccccc13
- TGI [1]: > 100 µM
- TGI [2]: > 100 µM
- TGI [3]: > 100 µM
- TGI [4]: > 100 µM
- TGI [5]: > 100 µM
- TGI [6]: > 100 µM
- TGI [7]: > 100 µM
- TGI [9]: > 100 µM
- TGI [8]: > 100 µM

Compound: NCC1OC(OC2C(CO)OC(OC3C(O)C(N)CC(N)C3OC3OC(CO)C(O)CC3N)C2O)C(N)C(O)C1OC1OC(CO)C(O)C(O)C1O (centres undefined)
- GI50 [1]: > 50 µg/mL
- TGI [1]: > 50 µg/mL
- GI50 [3]: > 50 µg/mL
- TGI [3]: > 50 µg/mL
- GI50 [10]: > 50 µg/mL
- TGI [10]: > 50 µg/mL
- GI50 [4]: > 50 µg/mL
- TGI [4]: > 50 µg/mL
- GI50 [6]: > 50 µg/mL
- TGI [6]: > 50 µg/mL
- GI50 [7]: > 50 µg/mL
- TGI [7]: > 50 µg/mL
- GI50 [9]: > 50 µg/mL
- TGI [9]: > 50 µg/mL
- GI50 [8]: > 50 µg/mL
- TGI [8]: > 50 µg/mL

Compound: COc1ccc(Nc2cc(C)nc(NCCCNc3ccnc4cc(Cl)ccc34)n2)cc1
- GI50 [2]: 1.88 µM
- TGI [2]: 3.58 µM
- GI50 [10]: 1.16 µM
- TGI [10]: 2.74 µM
- GI50 [4]: 1.78 µM
- TGI [4]: 3.8 µM
- GI50 [5]: 2.04 µM
- TGI [5]: 3.65 µM
- GI50 [6]: 2.42 µM
- TGI [6]: 6.03 µM
- GI50 [7]: 1.34 µM
- TGI [7]: 2.73 µM
- GI50 [9]: 1.24 µM
- TGI [9]: 2.64 µM
- GI50 [8]: 1.4 µM
- TGI [8]: 2.76 µM

Compound: OCc1c[te]c(-c2ccccc2)c1
- TGI [1]: > 100 µM
- TGI [2]: > 100 µM
- TGI [3]: > 100 µM
- TGI [4]: > 100 µM
- TGI [6]: > 100 µM
- TGI [9]: 78.3 µM
- TGI [8]: > 100 µM

Compound: Cc1ccc(S(=O)OCC23CC4CC(CC(C4)C2)C3)cc1 (centres undefined)
- TGI [1]: > 100 µM
- TGI [2]: > 100 µM
- TGI [3]: > 100 µM
- TGI [4]: > 100 µM
- TGI [5]: > 100 µM
- TGI [6]: > 100 µM
- TGI [7]: > 100 µM
- TGI [9]: > 100 µM
- TGI [8]: > 100 µM

Compound: Cn1c(/C=C/[N+](=O)[O-])cc2ccccc21
- GI50 [1]: 15.3 µM
- TGI [1]: > 100 µM
- GI50 [2]: 1.69 µM
- TGI [2]: 3.15 µM
- GI50 [3]: 1.77 µM
- TGI [3]: 3.56 µM
- GI50 [4]: 3.77 µM
- TGI [4]: 20.9 µM
- GI50 [5]: 2.22 µM
- TGI [5]: 7.43 µM
- GI50 [6]: 3.17 µM
- TGI [6]: 31.7 µM
- GI50 [7]: 5.84 µM
- TGI [7]: > 100 µM
- GI50 [8]: 3.07 µM
- TGI [8]: 13.3 µM

Compound: CC(=O)Nc1ccc(COC(O)CN2CCCCC2)cc1[N+](=O)[O-] (centres undefined)
- TGI [2]: > 100 µM
- TGI [3]: > 100 µM
- TGI [10]: > 100 µM
- TGI [4]: > 100 µM
- TGI [5]: > 100 µM
- TGI [6]: > 100 µM
- TGI [7]: > 100 µM
- TGI [9]: > 100 µM
- TGI [8]: > 100 µM

Compound: Cn1c(=O)c(Oc2ccc(F)cc2F)cc2cnc(NC3CCS(=O)(=O)CC3)nc21
- GI50 [2]: > 25 µM
- TGI [2]: > 25 µM
- GI50 [3]: > 25 µM
- TGI [3]: > 25 µM
- GI50 [10]: > 25 µM
- TGI [10]: > 25 µM
- GI50 [4]: > 25 µM
- TGI [4]: > 25 µM
- GI50 [5]: > 14.3 µM
- TGI [5]: > 25 µM
- GI50 [6]: > 25 µM
- TGI [6]: > 25 µM
- GI50 [7]: > 12.4 µM
- TGI [7]: > 25 µM
- GI50 [9]: > 25 µM
- TGI [9]: > 25 µM
- GI50 [8]: > 25 µM
- TGI [8]: > 25 µM

Compound: CC(=O)NC1C(OCc2ccccc2)OC(COC(=O)CCCCCCCCCCNc2ccc([N+](=O)[O-])c3[nH]c4ccccc4c(=O)c23)C(O)C1OC(C)C(=O)NC(C)C(=O)NC(CCC(N)=O)C(=O)OCc1ccccc1 (centres undefined)
- TGI [1]: > 100 µM
- TGI [2]: > 100 µM
- TGI [3]: > 100 µM
- TGI [4]: > 100 µM
- TGI [5]: > 100 µM
- TGI [6]: > 100 µM
- TGI [7]: > 100 µM
- TGI [9]: > 100 µM
- TGI [8]: > 100 µM

Compound: COC(=O)C(Cc1nc2ccccc2nc1C)/C(=N\NC(N)=O)C(=O)Nc1cccc([N+](=O)[O-])c1 (centres undefined)
- TGI [1]: > 100 µM
- TGI [2]: > 100 µM
- TGI [3]: > 100 µM
- TGI [4]: > 100 µM
- TGI [5]: 27.3 µM
- TGI [6]: > 100 µM
- TGI [7]: > 100 µM
- TGI [9]: > 100 µM
- TGI [8]: > 100 µM

Compound: O=C(COC(=O)c1cccc2c(=O)c3ccccc3[nH]c12)Nc1ccc(C(=O)O)cc1
- TGI [1]: > 100 µM
- TGI [2]: > 100 µM
- TGI [3]: > 100 µM
- TGI [4]: > 100 µM
- TGI [5]: > 100 µM
- TGI [6]: > 100 µM
- TGI [7]: > 100 µM
- TGI [9]: > 100 µM
- TGI [8]: > 100 µM

Compound: COc1ccc(C(=O)C(c2ccc(OCc3ccccc3)cc2)c2ccc(OCc3ccccc3)cc2)cc1
- TGI [1]: > 100 µM
- TGI [2]: > 100 µM
- TGI [3]: > 100 µM
- TGI [4]: > 100 µM
- TGI [5]: > 100 µM
- TGI [6]: > 100 µM
- TGI [7]: > 100 µM
- TGI [9]: > 100 µM
- TGI [8]: > 100 µM

Compound: COc1cc([C@@H]2C[C@H]2c2cc(SC)n[nH]2)cc(OC)c1OC
- GI50 [1]: 14.9 µM
- TGI [1]: 40.2 µM
- GI50 [2]: 15.2 µM
- TGI [2]: 32.8 µM
- GI50 [3]: 13.9 µM
- TGI [3]: 28.5 µM
- GI50 [10]: 18.8 µM
- TGI [10]: 41.2 µM
- GI50 [4]: 17.7 µM
- TGI [4]: 41.7 µM
- GI50 [5]: 13.8 µM
- TGI [5]: 37.3 µM
- GI50 [6]: 14 µM
- TGI [6]: 45.1 µM
- GI50 [7]: 10.9 µM
- TGI [7]: 28.5 µM
- GI50 [8]: 14.7 µM
- TGI [8]: 29 µM

Compound: CCCCCCCCCCCCCCCCC(=O)O.CCCCCCCCCCCCCCCCCC(=O)O.CCCCCCCCCCCCCCCCCC(=O)O.CCCCCCCCCCCCCCCCCC(=O)O.CCCCCCCCCCCCCCCCCC(=O)O.CO[CH-]OC12COC1CC(O)C1(C)C(O)C(OC(C)O)C3=C(C)C(OC(=O)C(O)C([NH-])c4ccccc4)CC(O)(C(OC(=O)c4ccccc4)C21)C3(C)C.[Cu+].[Zn].[Zn].[Zn].[Zn].[Zn] (centres undefined)
- GI50 [1]: 0.112 µM
- TGI [1]: 9.22 µM
- GI50 [2]: 0.00656 µM
- TGI [2]: > 25 µM
- GI50 [10]: 0.00262 µM
- TGI [10]: 3.83 µM
- GI50 [4]: 0.00441 µM
- TGI [4]: 3.66 µM
- GI50 [5]: 0.0103 µM
- TGI [5]: 6.07 µM
- GI50 [6]: 0.0102 µM
- TGI [6]: > 25 µM
- GI50 [7]: 0.0102 µM
- TGI [7]: 2.9 µM
- GI50 [9]: 0.00598 µM
- TGI [9]: 0.0506 µM
- TGI [8]: 3.57 µM

Compound: O=C(/C(=C\c1ccc(Cl)cc1)c1ccccc1)c1ccccc1
- TGI [1]: > 100 µM
- TGI [2]: 74.3 µM
- TGI [3]: > 100 µM
- TGI [4]: > 100 µM
- TGI [5]: > 100 µM
- TGI [6]: > 100 µM
- TGI [7]: > 100 µM
- TGI [9]: > 100 µM
